Assay results reported in patent publication US9844585B2, “Convection enhanced delivery apparatus, method, and application” (YALE UNIVERSITY, priority 2007, dated 2017).
Entries after “also recorded” stand apart in the source; their conditions may differ.

Key:
[1] = co-infused with 20% mannitol; cited from earlier work
[2] = tested on: rat brain; details: hyperosmolar mannitol co-infusion; cited from earlier work
[3] = tested on: striatum of the normal rat brain; test: In vivo nanoparticle infusions by CED with enzymatic or hyperosmolar treatment
[4] = tested on: hyaluronan (HA); test: Histochemical assessment of hyaluronan degradation (HABP staining); assay type: in vivo, rat
Procedure: Degradation of HA was determined by staining with hyaluronic acid binding protein (HABP) following 1 μL infusions of 1000 U/mL hyaluronidase into the striatum following the same surgical procedure outlined above. Following degradation times of 30 min, 6, 12, and 24 hr brains were harvested and post-fixed in 4% paraformaldehyde in PBS at 4° C. for 4 days. The tissue was cryo-protected in 30% sucrose for 3 days, frozen at −70° C., and sectioned into 50 μm slices. Tissue slices were immersed in biotinylated HABP ([…], Calbiochem 385911) in PBS and left overnight on an orbital shaker. Slides were then immersed Alexa 555-Streptavidin conjugate (2 mg/mL, Invitrogen S21281) for two hours. Following several washing steps in PBS, stained slices were mounted with ProLong Gold Antifade media (Invitrogen P36930) and covered. Fluorescent images were captured using the same set-up described for nanoparticle imaging.

[5] = in 0.3% agarose; cited from earlier work
[6] = tested on: xenografted tumors; details: following collagenase treatment of xenografted tumors; cited from earlier work

## OC[C@@H](O)[C@@H](O)[C@H](O)[C@H](O)CO [Mannitol, mannitol]
[1]
  distribution volume of 2 kDa dextran: unchanged
[2]
  increase in the distribution volume of 40 nm liposomes: 50%
[3]; co-infusion of mannitol with nanoparticles
  entrainment of nanoparticles in perivascular spaces / branched distribution indicative of perivascular transport: attenuated; also recorded: not observed
[3]; co-infusion with 25% mannitol, untreated tissue vs untreated tissue without mannitol
  increase in nanoparticle distribution volume: 133%
[3]; mannitol co-infusion into enzyme-treated (24 hr hyaluronidase) tissue vs enzyme-treated tissue
  increase in nanoparticle distribution volume: 23%

## Hyaluronidase
[4]; 30 min and 6 hr after 1 μL of 1000 U/mL
  degradation of HA by HABP staining: some evidence of degradation
[4]; 12 hr and 24 hr after 1 μL of 1000 U/mL
  degradation of HA by HABP staining: widespread degradation of HA
[4]; 24 hr incubation
  degradation of HA by HABP staining: most complete digestion of HA
[3]; 30 min digestion with hyaluronidase
  effect on nanoparticle distribution volume: no measurable change; also recorded: no measurable effect
[3]; 24 hr digestion with hyaluronidase vs normal tissue
  increase in nanoparticle distribution volume: 70%

## albumin
[5]
  diffusivity D: 8.3×10^−7 cm^2/s

## collagenase
[6]
  increase in the diffusivity of IgG: 100%
